Where two headings read alike, the source gives them in different places.
Tests used:
PI3K/Akt pathway = test: Luc-Akt-PH/YFP-membrane BRET in HEK293T cells (recruitment of Akt to the membrane); format: cell-based; conditions: for effect on the recruitment of kinase Akt to the membrane: in the absence of the hormone
Source text: To measure the activity of the PI3-kinase pathway by the BRET technique, HEK293T cells are transfected with plasmids allowing, on the one hand, the expression of the PH (Pleckstrin Homology) domain of the Akt protein which has been fused to the luciferase and, on the other hand, a membrane-addressing sequence which has been fused to the YFP protein. When the PH domain of Akt is recruited to the membrane by the PIP3s, an energy transfer between the luciferase that is coupled to the PH domain of Akt and the membrane YFP protein takes place. The measured BRET signal is a control of the production of PIP3s at the membrane and is a reflection of the activation of the PI-3-kinase/Akt pathway in real time on cells.

IR-Grb14 interaction = biological target: T1, IR-Grb14 interaction (Homo sapiens, UniProt P06213); test: IR-Luc/Grb14-YFP BRET technique in a cell-free system; format: binding; conditions: for % BRET signal/DMSO control / remaining activity at 50 µM: insulin stimulation (100 nM)
T1 construct: a vector encoding the insulin receptor fused to the luciferase (IR-Luc); made in house; host or cells: HEK293T (transfected); IR-Luc was partially purified on wheat germ lectin sepharose; Grb14-YFP was used as crude lysate
T1 sequence (P06213 763-1382 limits assumed): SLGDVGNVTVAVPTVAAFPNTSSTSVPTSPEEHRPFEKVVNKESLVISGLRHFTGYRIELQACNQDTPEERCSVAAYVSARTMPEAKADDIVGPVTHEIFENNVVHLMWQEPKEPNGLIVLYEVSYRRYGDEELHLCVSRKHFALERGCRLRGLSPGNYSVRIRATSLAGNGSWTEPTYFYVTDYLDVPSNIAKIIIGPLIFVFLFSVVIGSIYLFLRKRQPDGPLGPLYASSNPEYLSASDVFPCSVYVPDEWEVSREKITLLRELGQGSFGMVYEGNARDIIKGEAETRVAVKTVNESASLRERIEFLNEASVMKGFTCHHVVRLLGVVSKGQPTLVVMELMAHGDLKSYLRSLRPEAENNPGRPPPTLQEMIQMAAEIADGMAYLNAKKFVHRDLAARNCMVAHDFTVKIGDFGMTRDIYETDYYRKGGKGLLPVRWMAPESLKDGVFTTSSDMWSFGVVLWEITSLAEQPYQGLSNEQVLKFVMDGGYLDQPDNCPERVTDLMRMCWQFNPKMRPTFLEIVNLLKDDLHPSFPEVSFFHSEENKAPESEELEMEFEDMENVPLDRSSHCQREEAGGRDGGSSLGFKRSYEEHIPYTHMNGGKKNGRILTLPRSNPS
T1 sequence (P06213 28-758 partner limits assumed): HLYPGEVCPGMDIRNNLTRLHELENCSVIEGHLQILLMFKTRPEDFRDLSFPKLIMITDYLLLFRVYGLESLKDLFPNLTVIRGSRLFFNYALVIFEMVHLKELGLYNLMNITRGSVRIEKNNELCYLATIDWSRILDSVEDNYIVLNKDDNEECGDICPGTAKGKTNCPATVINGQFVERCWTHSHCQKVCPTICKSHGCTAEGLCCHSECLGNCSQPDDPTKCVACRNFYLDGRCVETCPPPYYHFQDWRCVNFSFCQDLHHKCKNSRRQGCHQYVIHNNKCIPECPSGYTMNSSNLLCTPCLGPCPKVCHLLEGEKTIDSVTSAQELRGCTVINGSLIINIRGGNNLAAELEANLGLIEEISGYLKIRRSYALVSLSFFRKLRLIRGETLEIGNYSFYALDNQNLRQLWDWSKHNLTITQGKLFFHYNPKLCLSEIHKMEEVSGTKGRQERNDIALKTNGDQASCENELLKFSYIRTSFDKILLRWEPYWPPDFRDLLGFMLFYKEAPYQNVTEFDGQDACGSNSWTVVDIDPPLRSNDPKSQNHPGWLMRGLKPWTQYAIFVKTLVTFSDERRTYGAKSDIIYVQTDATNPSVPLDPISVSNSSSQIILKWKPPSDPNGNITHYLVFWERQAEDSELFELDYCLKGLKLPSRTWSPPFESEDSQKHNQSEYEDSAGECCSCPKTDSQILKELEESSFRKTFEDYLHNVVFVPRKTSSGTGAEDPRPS
Procedure: Compounds according to the invention were experimentally assessed for their inhibitory effect on the IR-Grb14 interaction by a BRET technique in a cell-free system described briefly below.
On the one hand, HEK293T cells were transfected with a vector encoding the insulin receptor fused to the luciferase (IR-Luc). Before lysis, the cells transfected with IR-Luc were stimulated or not with 100 nM insulin for 10 minutes. The IR-Luc lysates were recovered and then purified on sepharose beads coupled with wheat germ lectin (WGL for Wheat Germ Lectin). The IR-Luc receptors were then eluted and then frozen in liquid nitrogen before being stored at −80° C. On the other hand, HEK293T cells were transfected either with a vector encoding the Grb14 protein fused to the YFP (Grb14-YFP), or with the empty plasmid pcDNA3. The cells transfected with Grb14-YFP or with the empty plasmid pcDNA3 were lysed 48 h after transfection. After centrifugation, the lysates are recovered and frozen at −80° C.
The insulin receptors (IR-Luc) partially purified from cells stimulated or not with insulin were incubated for 20 minutes with the inhibitor compounds according to the invention suspended in DMSO. The cellular extracts from cells transfected with Grb14-YFP (or the empty plasmid pcDNA3) were then added and then after 40 minutes of incubation, coelenterazine was added and BRET reading was initiated. The results are expressed as a percentage of the BRET signal obtained in the presence of the molecules tested compared to the BRET signal of the DMSO control.

[1] = system: PEPCK and G6Pase expression; test: Expression of neoglucogenesis genes in hepatocytes in primary culture (RT-qPCR); format: cell-based, mice; conditions: 1 nM insulin; glucagon 10 nM
Procedure: FIG. 6, the effect of the compound of Formula (Ia) according to the invention (black bars) on the expression of insulin target genes, PEPCK (FIG. 6A) and G6Pase (FIG. 6B), involved in the neoglucogenesis pathway. Hepatocytes in primary culture are cultured for 8 h in the presence of compounds of Formula (Ia) (50 μM), insulin (1 nM) and glucagon (pre-incubation 1 h at 10 nM). The relative quantification of mRNAs is performed by RT-qPCR. The values are related to the quantification of the 18S gene in the same sample in order to normalize the results. The results are the average of 3 to 5 independent experiments (*p<0.05, **p<0.01, by Anova followed by a Newman-Keuls test).
To study the inhibitory effect of insulin on neoglucogenesis gene expression, hepatocytes from mice in primary culture were pre-incubated with 10 nM glucagon.

[2] = in the presence of insulin (5 nM)
[3] = read-out: % BRET signal/DMSO control, 50 μM

In the case of `CC(C)(C)c1cc(C=C(C#N)C#N)cc(Br)c1O` [AG1024, reference compound], the “BRET signal after inhibition of tyrosine kinase activity of the insulin receptor” value (PI3K/Akt pathway; pre-incubation 1 h with 25 μM) is reported as “very significant drop”.
In the case of `CCOc1cc(C=C2C(=O)NC(=O)NC2=O)ccc1OCc1cccc(C(=O)O)c1` [Comparative A], the “significant decrease in the BRET signal / reduction in the IR-Grb14 interaction (in words)” value (IR-Grb14 interaction; 50 μM) is reported as “do not allow for a significant decrease” and the “% BRET signal/DMSO control” value (IR-Grb14 interaction; 50 μM) is reported as 103% (+/−15%).
With `CCOc1cc(C=C2C(=O)NC(=O)NC2=O)ccc1OCc1cccc(C(=O)O)c1` [Comparative B] the “significant decrease in the BRET signal / reduction in the IR-Grb14 interaction (in words)” value (IR-Grb14 interaction; 50 μM) was “do not allow for a significant decrease” and the “% BRET signal/DMSO control” value (IR-Grb14 interaction; 50 μM) was 93% (+/−7%).
`CCOc1cc(C=C2C(=O)NC(=O)NC2=O)ccc1OCc1cccc(C(=O)O)c1` [Comparative C] was tested, and the “significant decrease in the BRET signal / reduction in the IR-Grb14 interaction (in words)” value (IR-Grb14 interaction; 50 μM) was “do not allow for a significant decrease” and the “% BRET signal/DMSO control” value (IR-Grb14 interaction; 50 μM) was 103% (+/−8%).
With `CCOc1cc(C=C2C(=O)NC(=O)NC2=O)ccc1OCc1cccc(C(=O)O)c1` [Comparative D] the “significant decrease in the BRET signal / reduction in the IR-Grb14 interaction (in words)” value (IR-Grb14 interaction; 50 μM) was “do not allow for a significant decrease” and the “% BRET signal/DMSO control” value (IR-Grb14 interaction; 50 μM) was 121% (+/−8%).
For `CCOc1cc(C=C2C(=O)NC(=O)NC2=O)ccc1OCc1cccc(C(=O)O)c1` [Comparative E], the “significant decrease in the BRET signal / reduction in the IR-Grb14 interaction (in words)” value (IR-Grb14 interaction; 50 μM) was “do not allow for a significant decrease” and the “% BRET signal/DMSO control” value (IR-Grb14 interaction; 50 μM) was 98% (+/−9%).
With `CCOc1cc(C=C2C(=O)NC(=O)NC2=O)ccc1OCc1cccc(C(=O)O)c1` [Comparative F] the “significant decrease in the BRET signal / reduction in the IR-Grb14 interaction (in words)” value (IR-Grb14 interaction; 50 μM) was “do not allow for a significant decrease” and the “% BRET signal/DMSO control” value (IR-Grb14 interaction; 50 μM) was 93% (+/−24%).
`Cc1ccc(/C=C/C(=O)O)o1` [Comparative IVa, (E)-3-(5-methylfuran-2-yl)acrylic acid, reference compound] was tested, and the “effect on the recruitment of kinase Akt to the membrane” value (PI3K/Akt pathway) was “no effect”, the BRET delta (PI3K/Akt pathway; [2]) was −61 (+/−35) and the “reduction of the recruitment of the Akt protein to the membrane” value (PI3K/Akt pathway; [2]) was “about 50%”. For the same compound, the “significant decrease in the BRET signal / reduction in the IR-Grb14 interaction (in words)” value (IR-Grb14 interaction; 50 μM) was “do not allow for a reduction” and the remaining activity at 50 µM (IR-Grb14 interaction; [3]) was 91%.
For `Cc1noc(NS(=O)(=O)c2ccc(N)cc2)c1C` [Comparative Va, 4-amino-N-(3,4-dimethyl-1,2-oxazol-5-yl)benzenesulfonamide, reference compound], the “effect on the recruitment of kinase Akt to the membrane” value (PI3K/Akt pathway) was “no effect”, the BRET delta (PI3K/Akt pathway; [2]) was −27 (+/−23) and the “effect on the production of PIP3s at the membrane” value (PI3K/Akt pathway; [2]) was “no effect”. The “significant decrease in the BRET signal / reduction in the IR-Grb14 interaction (in words)” value (IR-Grb14 interaction; 50 μM) was “do not allow for a reduction” and the remaining activity at 50 µM (IR-Grb14 interaction; [3]) was 98%.
In the case of `COc1cc(C=C2C(=O)NC(=S)NC2=O)ccc1OCc1cccc(C(=O)O)c1` [IIc], the “decrease in the BRET signal between the insulin receptor and the Grb14 protein” value (IR-Grb14 interaction; 50 μM, with insulin stimulation) is reported as 25% and the remaining activity at 50 µM (IR-Grb14 interaction; [3]) is reported as 75%.
In the case of `O=C1NC(=S)NC(=O)C1=Cc1ccc(OCc2cccc(C(=O)O)c2)cc1` [IId], the BRET delta (PI3K/Akt pathway; without insulin) is reported as 67 (+/−33) and the remaining activity at 50 µM (IR-Grb14 interaction; [3]) is reported as 69%.
With `CCOc1cc(C=C2C(=O)NC(=S)NC2=O)ccc1OCc1ccc(C(=O)O)cc1` [IIe] the BRET delta (PI3K/Akt pathway; without insulin) was 96 (+/−50) and the remaining activity at 50 µM (IR-Grb14 interaction; [3]) was 65%.
For `CCOc1ccc(/C=C2/C(=O)NC(=S)N(c3ccccc3)C2=O)cc1C(=O)O` [IIf], the BRET delta (PI3K/Akt pathway; without insulin) was 54 (+/−44) and the remaining activity at 50 µM (IR-Grb14 interaction; [3]) was 65%.
For `CCc1ccc(/C=C/C(=O)Nc2ccc(S(=O)(=O)Nc3onc(C)c3C)cc2)o1` [Ib], the BRET delta (PI3K/Akt pathway; without insulin) was 119 (+/−26) and the remaining activity at 50 µM (IR-Grb14 interaction; 50 μM, read-out: % BRET signal/DMSO control) was 58%.
For insulin, the “effect on the recruitment of the Akt protein to the membrane after AG1024” value (PI3K/Akt pathway; cells pre-incubated 1 h with 25 μM AG1024, Ia 50 μM, insulin 5 nM) was “no longer have any effect”, the BRET delta (PI3K/Akt pathway; insulin 5 nM alone) was “about 100” and the “inhibition of glucagon-induced G6Pase expression” value [1] was 60 to 70%. For the same compound, the “inhibition of glucagon-induced PEPCK expression” value [1] was 60 to 70%.
